Reference: ChEMBL document CHEMBL1201862, “PubChem BioAssay data set” (2004)
The source made the active and inactive calls.

Assays:
[1] = microbe, parasite or virus in culture; assay type: functional; settings: Mycobacterium tuberculosis
[2] = target: T1, Replicative DNA helicase DnaB (Mycobacterium tuberculosis, UniProt P9WMR3); test: DnaB intein splicing inhibitors, dose response, biochemical, cell-free fluorescence (AID 449749); assay type: functional
T1 sequence (P9WMR3 whole entry): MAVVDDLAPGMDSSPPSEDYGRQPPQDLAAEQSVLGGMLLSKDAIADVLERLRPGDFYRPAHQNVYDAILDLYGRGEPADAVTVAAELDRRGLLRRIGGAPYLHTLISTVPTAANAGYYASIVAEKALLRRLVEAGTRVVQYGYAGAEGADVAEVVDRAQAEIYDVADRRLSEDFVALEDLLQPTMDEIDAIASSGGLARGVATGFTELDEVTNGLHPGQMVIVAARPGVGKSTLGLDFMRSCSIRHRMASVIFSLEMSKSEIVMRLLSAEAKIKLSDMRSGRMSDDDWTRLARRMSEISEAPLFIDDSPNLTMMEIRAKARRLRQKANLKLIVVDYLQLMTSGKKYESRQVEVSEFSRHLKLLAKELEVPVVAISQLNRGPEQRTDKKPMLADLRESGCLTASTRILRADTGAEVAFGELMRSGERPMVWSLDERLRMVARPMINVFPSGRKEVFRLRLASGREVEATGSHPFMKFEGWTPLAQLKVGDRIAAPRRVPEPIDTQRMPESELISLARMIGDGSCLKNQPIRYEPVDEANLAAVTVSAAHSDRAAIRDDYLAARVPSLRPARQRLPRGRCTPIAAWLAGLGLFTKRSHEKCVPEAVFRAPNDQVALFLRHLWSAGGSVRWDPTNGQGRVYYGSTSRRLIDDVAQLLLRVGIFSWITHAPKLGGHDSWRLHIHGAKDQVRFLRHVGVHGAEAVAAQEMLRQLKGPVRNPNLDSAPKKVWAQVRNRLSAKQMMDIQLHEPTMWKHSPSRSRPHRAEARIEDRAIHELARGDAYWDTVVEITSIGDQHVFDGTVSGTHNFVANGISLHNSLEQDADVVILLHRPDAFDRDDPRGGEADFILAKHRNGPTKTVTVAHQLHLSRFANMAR

Protein RecA = target: T2, Protein RecA (Mycobacterium tuberculosis, UniProt P9WHJ3); test: Fluorescence Cell-Free Homogeneous Dose Retest to Identify Inhibitors of RecA-Intein Splicing Activity. [Related pubchem assays (depositor defined):AID2097, AID2223, AID489010, AID492950]; assay type: functional
T2 sequence (P9WHJ3 whole entry): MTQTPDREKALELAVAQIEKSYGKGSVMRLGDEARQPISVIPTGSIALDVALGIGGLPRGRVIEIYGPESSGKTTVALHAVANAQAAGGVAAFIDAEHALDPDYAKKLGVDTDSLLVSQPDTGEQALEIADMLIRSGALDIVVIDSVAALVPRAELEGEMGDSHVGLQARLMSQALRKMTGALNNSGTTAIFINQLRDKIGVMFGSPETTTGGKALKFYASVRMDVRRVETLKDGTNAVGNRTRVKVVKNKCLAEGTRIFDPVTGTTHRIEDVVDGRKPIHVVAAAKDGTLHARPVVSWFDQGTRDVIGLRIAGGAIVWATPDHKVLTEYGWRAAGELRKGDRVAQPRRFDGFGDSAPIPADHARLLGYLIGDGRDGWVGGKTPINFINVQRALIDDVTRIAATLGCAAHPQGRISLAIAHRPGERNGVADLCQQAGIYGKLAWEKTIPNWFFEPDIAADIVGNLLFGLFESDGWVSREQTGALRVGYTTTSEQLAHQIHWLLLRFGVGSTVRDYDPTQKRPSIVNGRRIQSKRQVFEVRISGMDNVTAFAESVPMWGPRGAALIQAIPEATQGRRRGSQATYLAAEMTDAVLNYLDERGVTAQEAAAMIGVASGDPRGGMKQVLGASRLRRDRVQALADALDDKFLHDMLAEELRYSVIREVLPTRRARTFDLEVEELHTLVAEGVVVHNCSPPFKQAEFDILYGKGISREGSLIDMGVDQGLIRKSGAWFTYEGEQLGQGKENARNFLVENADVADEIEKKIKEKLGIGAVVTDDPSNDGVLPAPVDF

[3] = Luminescence Cell-Based Dose Confirmation HTS to Identify Activators of 5'UTR Stem-Loop Driven Alpha-Synuclein mRNA Translation in H4 Neuroglioblastoma Cells. [Related pubchem assays: 1829 (Project Summary), 1814 (Primary HTS)]; assay type: functional
[4] = Luminescence Cell-Based Dose Response HTS to Identify Activators of Luciferase Translation or Activity in H4 […] Cells. [Related pubchem assays: 1829 (Project Summary), 1814 (Primary HTS)]; assay type: functional
H4 = test: Luminescence Cell-Based Dose Response HTS to Identify Activators of 5'UTR Stem-Loop Driven Prion Protein mRNA Translation in H4 Neuroglioblastoma Cells. [Related pubchem assays: 1829 (Project Summary), 1814 (Primary HTS)]; assay type: functional; settings: Homo sapiens
[5] = target: T3, Corticotropin-releasing factor receptor 2/Corticotropin-releasing factor-binding protein (Homo sapiens, UniProt P24387+Q13324); test: Dose Response confirmation of uHTS hits for small molecule antagonists of the CRF-binding protein and CRF-R2 receptor complex.; assay type: functional; settings: read-out: IC50_Mean
T3 sequence (Q13324 whole entry): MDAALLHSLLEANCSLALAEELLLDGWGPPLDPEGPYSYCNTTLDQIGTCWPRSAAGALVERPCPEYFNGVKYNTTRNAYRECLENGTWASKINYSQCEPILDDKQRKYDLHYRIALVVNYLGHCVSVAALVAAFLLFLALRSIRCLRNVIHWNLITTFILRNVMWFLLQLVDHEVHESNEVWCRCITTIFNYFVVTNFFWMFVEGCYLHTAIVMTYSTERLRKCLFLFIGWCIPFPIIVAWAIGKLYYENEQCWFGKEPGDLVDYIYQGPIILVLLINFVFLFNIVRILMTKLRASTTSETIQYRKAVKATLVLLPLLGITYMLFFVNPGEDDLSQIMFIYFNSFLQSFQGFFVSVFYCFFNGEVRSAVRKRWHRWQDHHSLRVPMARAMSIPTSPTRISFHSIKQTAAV
T3 sequence (P24387 whole entry): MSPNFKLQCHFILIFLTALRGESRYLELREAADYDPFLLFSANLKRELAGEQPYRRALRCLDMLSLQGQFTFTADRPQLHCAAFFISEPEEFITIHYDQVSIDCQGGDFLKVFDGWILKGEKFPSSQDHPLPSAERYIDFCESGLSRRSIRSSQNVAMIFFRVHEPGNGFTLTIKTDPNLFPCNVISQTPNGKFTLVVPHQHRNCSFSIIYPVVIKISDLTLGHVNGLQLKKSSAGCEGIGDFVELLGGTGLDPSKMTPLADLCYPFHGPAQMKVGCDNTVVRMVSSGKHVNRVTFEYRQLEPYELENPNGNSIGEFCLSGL

[6] = target: T3, Corticotropin-releasing factor receptor 2/Corticotropin-releasing factor-binding protein; test: activators of CRF receptor 2 with binding protein – uHTS hits, confirmation (AID 602473); assay type: functional; settings: read-out: EC50_Mean
Cytochrome P450 2C19 = Cytochrome P450 2C19 (Homo sapiens, UniProt P33261); test: Cytochrome panel assay with activity outcomes. Panel member name: p450-cyp2c19 Compounds with AC50 equal or less than 10 uM are considered active; assay type: functional; settings: read-out: AC50
Sequence of Cytochrome P450 2C19 (P33261 whole entry): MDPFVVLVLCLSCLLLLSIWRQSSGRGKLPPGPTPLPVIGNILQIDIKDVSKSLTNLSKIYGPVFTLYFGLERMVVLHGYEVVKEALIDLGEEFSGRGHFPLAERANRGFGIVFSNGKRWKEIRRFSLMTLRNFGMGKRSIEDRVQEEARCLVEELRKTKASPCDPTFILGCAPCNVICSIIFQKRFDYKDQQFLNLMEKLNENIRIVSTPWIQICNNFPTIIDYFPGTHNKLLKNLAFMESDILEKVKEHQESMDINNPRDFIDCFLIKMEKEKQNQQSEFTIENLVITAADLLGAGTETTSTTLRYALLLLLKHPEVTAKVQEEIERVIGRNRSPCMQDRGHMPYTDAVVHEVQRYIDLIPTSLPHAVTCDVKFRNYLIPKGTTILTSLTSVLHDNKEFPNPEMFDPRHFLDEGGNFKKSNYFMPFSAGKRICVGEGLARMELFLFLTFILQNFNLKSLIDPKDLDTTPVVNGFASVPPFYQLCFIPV

[7] = target: T4, Polyadenylate-binding protein 1 (Homo sapiens, UniProt P11940); test: MLLE binding blockers, Cy5 peptide tracer – biochemical, fluorescence polarization, Cy5-PAM2 peptide, secondary, miRNA deadenylation inhibitor project, dose response (AID 602260); assay type: functional; settings: read-out: IC50_Mean
T4 sequence (P11940 whole entry, the tested form may be a part): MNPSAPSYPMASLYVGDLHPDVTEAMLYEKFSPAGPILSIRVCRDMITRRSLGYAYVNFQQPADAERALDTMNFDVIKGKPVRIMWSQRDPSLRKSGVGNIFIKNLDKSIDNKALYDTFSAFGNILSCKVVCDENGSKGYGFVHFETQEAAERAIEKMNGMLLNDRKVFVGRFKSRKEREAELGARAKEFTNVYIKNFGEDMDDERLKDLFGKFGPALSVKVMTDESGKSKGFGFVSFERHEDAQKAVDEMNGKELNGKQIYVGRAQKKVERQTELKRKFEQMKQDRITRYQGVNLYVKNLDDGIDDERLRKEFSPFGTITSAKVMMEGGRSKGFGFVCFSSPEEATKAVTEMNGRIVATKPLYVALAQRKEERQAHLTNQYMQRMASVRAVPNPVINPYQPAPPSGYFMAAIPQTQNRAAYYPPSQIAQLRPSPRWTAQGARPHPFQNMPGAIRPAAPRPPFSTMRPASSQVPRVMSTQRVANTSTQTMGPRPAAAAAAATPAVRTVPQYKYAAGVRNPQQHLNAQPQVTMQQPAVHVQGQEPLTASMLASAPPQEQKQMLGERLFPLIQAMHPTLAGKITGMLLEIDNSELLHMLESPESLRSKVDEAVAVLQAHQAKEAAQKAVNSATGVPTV

[8] = target: T4, Polyadenylate-binding protein 1; test: MLLE domain peptide-binding blockers, IC50 – biochemical, fluorescence polarization, FITC-PAM2 peptide, dose response (AID 602259); assay type: functional; settings: read-out: IC50_Mean
BJ [9] = test: BJ-TERT fibroblast viability loss – cell-based, RAS-independent, luminescence, dose response (AID 1933); assay type: functional; settings: Homo sapiens
BJ [10] = test: cells; assay type: functional, cell-based; settings: Homo sapiens
BJ [11] = test: BJ-TERT-LT-ST fibroblast viability loss – cell-based, RAS-independent, luminescence, dose response (AID 1935); assay type: functional; settings: Homo sapiens;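 further: BJ fibroblasts immortalized with TERT plus LT and ST oncogenes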
[12] = DRD fibroblast viability loss – cell-based, non-viral oncogenic, luminescence, dose response (AID 1934); assay type: functional; settings: Homo sapiens
[13] = P. falciparum Dd2 growth inhibitors, dose response, SYBR Green, cherry-picked samples (AID 1159567); assay type: functional, cell-based

Row | SMILES | CC50 [1] | EC50 [3] | EC50 [4] | EC50 (H4) | also measured
1 | CCOC(=O)c1c(CC(C)C)csc1NC(=O)CCl | > 40 µM (active) | – | – | – | AC50 [2]: 9.8 µM (active); EC50 (Protein RecA): 2.39 µM (active)
2 | COc1cccc(Nc2ccc([N+](=O)[O-])c3nonc23)c1 | > 40 µM (active) | – | – | – | –
3 | Cc1c(-c2ccc(Cl)cc2)[n+]([O-])c(-c2ccccc2)c[n+]1[O-] | – | > 120 µM (not active) | > 120 µM (not active) | > 120 µM (not active) | IC50 [5]: > 47.1 µM (inactive); EC50 [6]: > 53 µM (inactive)
4 | COc1ccc(-c2nn(-c3ccccc3)cc2/C=N/NC(=O)c2ccc3c(c2)OCO3)cc1 | – | 18.3 µM (active) | 12.2 µM (active) | 18.5 µM (active) | AC50 (Cytochrome P450 2C19): 2.24 µM (inconclusive)
5 | COc1cccc(NC(=S)N/N=C2/CCCCc3ccccc32)c1 | – | 7.09 µM (active) | 8.02 µM (active) | 33.6 µM (active) | IC50 [7]: > 66 µM (inactive); IC50 [8]: > 66 µM (inactive)
6 | Cc1ccc(/C=C2\SC(=S)N(CCC(=O)N3CCCCC3)C2=O)cc1 | – | – | – | – | EC50 (BJ [9]): > 150 µM (not active); EC50 (BJ [10]): > 150 µM (inconclusive); EC50 (BJ [11]): > 150 µM (not active); EC50 [12]: > 150 µM (not active)
7 | COc1ccc(C2(c3ccc(OC)cc3)NC(=O)N(CC(=O)Nc3ccc(OC(F)F)cc3)C2=O)cc1 | 36.2 µM (active) | – | – | – | –
8 | CC(Oc1ccc2c(c1)c1ccnc3c4ccccc4c(=O)n2c13)C(=O)NCCN1CCOCC1 (stereo not given) | – | 19.6 µM (active) | 12.5 µM (active) | > 120 µM (not active) | –
9 | CCOc1ccc(-c2nc(C)c(C(C)=O)n2O)cc1 | – | 14.1 µM (active) | 9.13 µM (active) | 8.13 µM (active) | –
10 | C[C@H]1CN([C@@H](C)CO)S(=O)(=O)c2ccc(C#Cc3ccncc3)cc2O[C@@H]1CN(C)S(=O)(=O)c1ccc(F)cc1 | – | – | – | – | AC50 [13]: 3.9 µM (active)
